Common to all, as to assay: growth of human tumour cells (NCI), 48 h
Test [1] relates to RXF 631.
Test [2] deals with HOP-18.
The subject of test [3] is LXFL 529.
The subject of test [4] is DMS-273.
Test [5] concerns KM-20L2.
Test [6] has as its system SNB-78.
Test [7] deals with XF498.
Test [8] has as its system DMS-114.
The test system of test [9] is M19-MEL.

The structures appear in SMILES notation.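 Cells were grown in 96-well plates and exposed to each compound for 48 hours at five concentrations; endpoints were interpolated linearly between bracketing concentrations, or set to the highest concentration if not reached. Abbreviation: GI50, concentration required for 50% inhibition of growth.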 Active and inactive are the calls of the source. No stated cut-off is given here; in the data, active = GI50 up to about 1.1 µM and inactive = higher.

Consider `O=C(O)CCC(NC(=O)c1ccccc1)C(=O)O` (centres undefined), for which the GI50 in test [1], in test [2], in test [3], in test [4], in [5] and in test [6] was > 100 µM (inactive) in each case. The GI50 in [7] and in test [8] was > 100 µM (inactive) throughout.

In the case of `COc1ccccc1/C=C1\CCC(CNc2ccc(Cl)cc2)C1=O` (centres undefined), the GI50 in test [2] is 16.5 µM (inactive); in [3], 0.226 µM (active); in test [4], 1.74 µM (inactive); in test [5], 0.661 µM (active); in test [6], 19.5 µM (inactive); in test [7], 27.9 µM (inactive). Besides, the GI50 in [9] was 1.61 µM (inactive); in test [8] it was 4.08 µM (inactive).

Turning to `N#Cc1c([N+](=O)[O-])cc(C(F)(F)F)cc1[N+](=O)[O-]`, the GI50 in [1] was 9.79 µM (inactive); in test [2], 11.2 µM (inactive); in [3], 2.07 µM (inactive); in test [4] it was 4.49 µM (inactive); in [5], 17.1 µM (inactive); in test [6] it was 2.07 µM (inactive). For the same compound, the GI50 was 1.83 µM (inactive) in test [7], 2.54 µM (inactive) in [9] and 1.88 µM (inactive) in test [8].

For the compound `O=C1CCC2(c3ccccc3)Nc3ncccc3N12` (centres undefined), the GI50 in test [3], in test [5], in [6], in test [7], in test [9] and in test [8] was > 100 µM (inactive) throughout.

As for `Cn1c2cccc3nnc4cccc(c4c32)n1C`, the GI50 in test [1], in test [3], in [4], in [5], in [6] and in [7] was > 100 µM (inactive) in each case. The GI50 in [9] and in [8] was > 100 µM (inactive) in each case.

Regarding `CC(=O)Oc1cc(OC(C)=O)c2cc3c(cc2c1OC(C)=O)C(=O)C1(CCCC1)C3=O`, the GI50 was 22.8 µM (inactive) in test [2]; 18.2 µM (inactive) in test [4]; 22.1 µM (inactive) in test [5]; 22.9 µM (inactive) in test [6]; 16.4 µM (inactive) in test [7]; 17.2 µM (inactive) in test [9]. In addition, in [8], the GI50 is 16.5 µM (inactive).

As to `ON1CCc2c([nH]c3ccccc23)C1c1ccc(Cl)cc1` (centres undefined), the GI50 in test [3] was 24 µM (inactive); in test [4], 31.3 µM (inactive); in test [5], 21.7 µM (inactive); in test [6] it was 33 µM (inactive); in test [7], 22.6 µM (inactive); in [9] it was 36.8 µM (inactive). Moreover, the GI50 in test [8] is 19.4 µM (inactive).

On to `COc1ccc(N2C(=O)C(N3C(=O)C=CC3=O)C2C=O)cc1` (centres undefined), for which the GI50 in test [2], in [3], in test [4], in test [5], in [6] and in [9] was > 100 µM (inactive) throughout.

For the compound `CN(C)CCC(/C=C/c1ccccc1)=N\Nc1ccccc1`, the GI50 is 4.5 µM (inactive) in test [2]; 0.185 µM (active) in test [3]; 0.571 µM (active) in [4]; 0.241 µM (active) in test [5]; 3.63 µM (inactive) in test [6]; 1.57 µM (inactive) in test [9]. In addition, the GI50 in test [8] was 2.07 µM (inactive).

As for `CCCC1C(=O)C(CC)Cc2c(OC)ccc(OC)c21` (centres undefined), the GI50 in test [1], in test [3], in test [4], in test [6], in test [7] and in test [9] was > 100 µM (inactive) each time.

Turning to `O=c1c2ccc3cccc4c(=O)cc(c5ccccc15)-c2c34`, the GI50 in test [2] is 22.7 µM (inactive); in test [3], 29.6 µM (inactive); in test [4] it was > 100 µM (inactive); in [5], > 100 µM (inactive); in [9] it was 20.3 µM (inactive); in test [8], 32 µM (inactive).

For the compound `COc1cc(C)c2c(c1)CN1CN2Cc2cc(OC)cc(C)c21`, the GI50 in [3] is 60 µM (inactive); in [4], 38.2 µM (inactive); in [6] it was 56.8 µM (inactive); in [9], 38.9 µM (inactive); in [8], 21.5 µM (inactive).

On to `COC(=O)C1C2CC3C(OC(=O)C31)C2OC(=O)[C@](OC)(c1ccccc1)C(F)(F)F` (some centres undefined), for which the GI50 in [1], in test [3], in test [4], in [5], in test [6] and in test [7] was > 100 µM (inactive) each time. For the same compound, the GI50 in test [9] and in test [8] was > 100 µM (inactive) each time.

As for `Cc1ccc(C)c(N2C/C(=N\NC(=O)CC#N)C(c3nc4ccccc4s3)C(=O)C2=O)c1` (centres undefined), the GI50 in test [2], in test [3], in test [4], in test [5], in test [6] and in test [7] was > 100 µM (inactive) each time. Besides, the GI50 in test [9] and in [8] was > 100 µM (inactive) throughout.

Turning to `O=C1c2ccccc2C(=O)N1CCn1ccc(NC(c2ccccc2)(c2ccccc2)c2ccccc2)nc1=O`, the GI50 is 15 µM (inactive) in test [1]; 24.2 µM (inactive) in test [2]; 28.4 µM (inactive) in [3]; 17.3 µM (inactive) in test [4]; 14.1 µM (inactive) in test [5]; 30.8 µM (inactive) in test [6]. For the same compound, the GI50 was 13.9 µM (inactive) in [7], 16.8 µM (inactive) in [9] and 18.4 µM (inactive) in test [8].

As for `CCN(CC)CC(=O)N1CCc2c([nH]c3ccccc23)C1c1cccnc1` (centres undefined), the GI50 in test [1], in [2], in test [3], in test [4], in test [5] and in test [6] was > 100 µM (inactive) throughout. Also, the GI50 in test [7], in [9] and in test [8] was > 100 µM (inactive) throughout.

Turning to `CC/C(C)=C1\CCC(CN2CCOCC2)C1=O` (centres undefined), the GI50 in [2] is 19 µM (inactive); in test [3], 11.2 µM (inactive); in [4], 18.1 µM (inactive); in test [5], 19.2 µM (inactive); in test [6], 21.8 µM (inactive); in test [7] it was 19.1 µM (inactive). The GI50 in test [9] is 14.9 µM (inactive); in [8], 5.26 µM (inactive).

For the compound `NC(=O)N/N=C/C(=C/Nc1ccccc1)[N+](=O)[O-]`, the GI50 in test [2], in [3], in [4], in test [5], in [7] and in test [9] was > 100 µM (inactive) each time. Moreover, the GI50 in test [8] is > 100 µM (inactive).

With `OCCOc1ccc(-c2cc(-c3ccccn3)nc(-c3ccccn3)c2)cc1`, the GI50 in test [1] is 0.465 µM (active); in test [2], 0.166 µM (active); in [3], 0.376 µM (active); in [4], 0.143 µM (active); in test [5] it was < 0.0383 µM (active); in test [6], 2.83 µM (inactive). Also, the results for the GI50 in [7], in test [9] and in test [8] were 0.0387 µM (active), 0.0962 µM (active) and 0.0552 µM (active), respectively.

Consider `O=C(NC1C2CC3CC(C2)CC1C3)c1ccncn1` (centres undefined), for which the GI50 in [1], in test [3], in test [4], in test [5], in test [6] and in [9] was > 100 µM (inactive) each time. Besides, the GI50 in test [8] is > 100 µM (inactive).

Regarding `O=C(c1ccccc1)c1nc2ccc(Cl)cc2cc1C(Br)Br`, the GI50 in [2] is 0.344 µM (active); in [3], 0.216 µM (active); in [4], 0.286 µM (active); in test [5] it was 0.25 µM (active); in [7], 0.933 µM (active); in test [9], 0.418 µM (active). Moreover, in test [8], the GI50 was 1.79 µM (inactive).

Consider `CCN(CC)CCCN1CCc2c([nH]c3ccccc23)C1c1cccnc1` (centres undefined), for which the GI50 in test [1] is > 100 µM (inactive); in test [3] it was > 100 µM (inactive); in test [4], > 100 µM (inactive); in test [5], > 100 µM (inactive); in [6] it was > 100 µM (inactive); in test [7], 5.22 µM (inactive). In addition, the GI50 in test [9] and in test [8] was > 100 µM (inactive) in each case.

As for `COc1cc([C@@H]2c3cc4c(cc3[C@@H](NCc3cccc(F)c3)C3COC(=O)[C@@H]32)OCO4)cc(OC)c1O` (some centres undefined), the GI50 in test [2] was > 65 µM (inactive); in test [3] it was 13.4 µM (inactive); in test [4], 2.21 µM (inactive); in test [5] it was 6.64 µM (inactive); in test [6] it was 15.3 µM (inactive); in test [8], 6.11 µM (inactive).

In the case of `O=c1c2c(-c3ccccc3)c3ccccc3nc2cnn1-c1ccccc1`, the GI50 in test [2], in test [3], in test [4], in test [5], in test [6] and in test [9] was > 100 µM (inactive) throughout. Moreover, the GI50 in test [8] was 57.1 µM (inactive).

As for `COc1cc(C[S+]2CCCC2)c(SC)cc1C[S+]1CCCC1`, the GI50 in test [1] was > 100 µM (inactive); in test [3] it was > 100 µM (inactive); in [5], > 100 µM (inactive); in test [6], > 100 µM (inactive); in [7], 74.5 µM (inactive); in test [9], > 100 µM (inactive). The GI50 in [8] was > 100 µM (inactive).

With `CC(=O)Oc1ccccc1` [ACETIC ACID PHENYL ESTER], the GI50 in test [1], in test [3], in [4], in test [5], in [9] and in test [8] was > 100 µM (inactive) in each case.

For the origin of these results see ChEMBL document CHEMBL1201862, “PubChem BioAssay data set” (2004).
